SMILES strings stand for the structures.

For this test, the target named is T1, CCR4 (Homo sapiens, UniProt P51679).
T1 construct: CEM Cells Endogenous Express CCR4; endogenous in cells; host or cells: CEM cells
T1 sequence (P51679 1-360): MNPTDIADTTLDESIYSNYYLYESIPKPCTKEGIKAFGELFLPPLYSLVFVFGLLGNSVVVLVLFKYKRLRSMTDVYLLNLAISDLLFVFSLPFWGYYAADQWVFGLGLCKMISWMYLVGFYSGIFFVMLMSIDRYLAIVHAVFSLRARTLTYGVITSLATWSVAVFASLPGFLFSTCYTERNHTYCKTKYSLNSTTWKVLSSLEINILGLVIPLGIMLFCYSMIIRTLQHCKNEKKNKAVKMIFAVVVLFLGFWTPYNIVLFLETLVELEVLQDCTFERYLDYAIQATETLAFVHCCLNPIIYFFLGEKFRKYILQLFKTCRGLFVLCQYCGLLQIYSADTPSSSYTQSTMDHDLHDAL
As to the kind of experiment: CEM cell chemotaxis (migration) assay to CCL22 (MDC) in 100% Fetal Bovine Serum (FBS). The test is classed as cell-based. The conditions noted are these: CEM cells in 100% FBS with 1% HEPEs; recombinant human CCL22 0.1 nM; 37° C. 60 minutes. From the text: CEM Cells Endogenous Express CCR4
A chemotaxis assay can be used to determine the efficacy of potential receptor antagonists at blocking the migration mediated through chemokine receptors, such as CCR4. This assay is routinely performed using the ChemoTX® microchamber system with a 5 μm pore-sized polycarbonate membrane.
FBS: CEM Cells are collected by centrifugation at 400×g at room temperature, then suspended at 5 million/ml in 100% Fetal Bovine Serum (FBS) with 1% HEPEs. The compound being tested is serially diluted from a maximum final concentration of 10 μM (or an equivalent volume of its solvent (DMSO)) and is then added to the cell/buffer mixture. Separately, recombinant human CCL22 (MDC) at its EC50 concentration (0.1 nM) is placed in the lower wells of the ChemoTX® plate. The 5-μm (pore size) polycarbonate membrane was placed onto the plate, and 20 μL of the cell/compound mixture is transferred onto each well of the membrane. The plates are incubated at 37° C. for 60 minutes, after which the polycarbonate membranes are removed and 5 μl of the DNA-intercalating dye CyQUANT (Invitrogen, Carlsbad, CA) is added to the lower wells. The amount of fluorescence, corresponding to the number of migrated cells, is measured using a Spectrafluor Plus plate reader (TECAN, San Jose, CA).
By IC50 is commonly meant the concentration at which inhibition is half-maximal. As to `C[C@@H](Nc1nc(N2CCN(C(=O)[C@H]3CCC(=O)N3)CC2)nc(N)c1Cl)c1ccc(Cl)cc1Cl` [Example 1.084], the IC50 is below 100 nM.
Then `C[C@@H](Nc1nc(N2CCN(C(=O)[C@H]3CCC(=O)N3)CC2)ncc1F)c1ccc(F)cc1Cl` [Example 1.085], with below 100 nM; and `C[C@@H](Nc1nc(N2CCN(C(=O)[C@H]3CCC(=O)N3)CC2)ncc1F)c1ccc(Cl)cc1F` [Example 1.086], with below 100 nM.
In the case of `C[C@H]1CC[C@H](C(=O)N[C@H]2CCN(c3ncc(Cl)c(N[C@H](C)c4ccc(Cl)cc4Cl)n3)C[C@@H]2F)N1` [Example 1.087], the IC50 is below 100 nM.
Take `Cc1cc(Cl)ccc1[C@@H](C)Nc1nc(N2CCN(C(=O)[C@H]3CCC(=O)N3)CC2)ncc1Cl` [Example 1.088]: the IC50 lay in the range of 100 to 1000 nM.
The same measure for `Cc1cc(Cl)ccc1[C@@H](C)Nc1nc(N2CCN(C(=O)[C@H]3CCC(=O)N3)CC2)ncc1F` [Example 1.089]: 100 to 1000 nM.
The same measure for `C[C@@H](Nc1nc(N2CC[C@H](NC(=O)[C@H]3CCCN3)[C@H](O)C2)ncc1F)c1ccc(Cl)cc1Cl` [Example 1.090]: below 100 nM; for `C[C@@H](Nc1nc(N2CC[C@H](NC(=O)[C@H]3CCC(=O)N3)[C@H](O)C2)ncc1F)c1ccc(Cl)cc1Cl` [Example 1.091]: above 1000 nM; for `C[C@@H](Nc1cc(C(F)(F)F)nc(N2CCN(C(=O)[C@H]3CCC(=O)N3)CC2)n1)c1ccc(Cl)cc1Cl` [Example 1.092]: 100 to 1000 nM.
Then `C[C@@H](Nc1nc(N2CC[C@H](NC(=O)[C@H]3CCC(=O)N3)[C@@H](O)C2)ncc1Cl)c1ccc(Cl)cc1Cl` [Example 1.093], with 100 to 1000 nM; and `C[C@@H](Nc1nc(N2CCN(C(=O)[C@H]3CCCN3)CC2)ncc1N)c1ccc(Cl)cc1Cl` [Example 1.094], with below 100 nM.
With `C[C@@H](Nc1nc(N2CCN(C(=O)[C@H]3CCC(=O)N3)CC2)ncc1N)c1ccc(Cl)cc1Cl` [Example 1.095], the IC50 is below 100 nM.
The same measure for `COc1cnc(N2CCN(C(=O)[C@H]3CN(C)C(=O)N3)CC2)nc1N[C@H](C)c1ccc(Cl)cc1Cl` [Example 1.096]: below 100 nM; for `Cc1nc(N2CCN(C(=O)[C@H]3CN(C)C(=O)N3)CC2)nc(N[C@H](C)c2ccc(Cl)cc2Cl)c1Cl` [Example 1.097]: below 100 nM.
Take `C[C@@H](Nc1nc(N2CCN(C(=O)[C@H]3CCC(=O)N3)CC2)ncc1C1CC1)c1ccc(Cl)cc1Cl` [Example 1.098]: the IC50 was 100 to 1000 nM.
The same measure for `C[C@@H](Nc1nc(N2CCN(C(=O)[C@H]3CCC(=O)N3)CC2)ncc1OCC(F)(F)F)c1ccc(Cl)cc1Cl` [Example 1.099]: 100 to 1000 nM.
Then `C[C@@H](Nc1nc(N2CC[C@H](NC(=O)[C@H]3CCC(=O)N3)[C@@H](O)C2)ncc1F)c1ccc(Cl)cc1Cl` [Example 1.100], with above 1000 nM.
Then `COCc1cnc(N2CCN(C(=O)[C@H]3CCCN3)CC2)nc1N[C@H](C)c1ccc(Cl)cc1Cl` [Example 1.101], with below 100 nM; and `COCc1cnc(N2CCN(C(=O)[C@H]3CCC(=O)N3)CC2)nc1N[C@H](C)c1ccc(Cl)cc1Cl` [Example 1.102], with below 100 nM.
For the compound `C[C@@H](Nc1nc(N2CCN(C(=O)[C@H]3CN(C)C(=O)N3)CC2)ncc1F)c1ccc(Cl)cc1Cl` [Example 1.103], the IC50 is below 100 nM.
In the case of `C[C@@H]1CN(c2ncc(Cl)c(N[C@H](C)c3ccc(Cl)cc3Cl)n2)CCN1C(=O)[C@H]1CN(C)C(=O)N1` [Example 1.104], the IC50 was below 100 nM.
Then `Cc1nc(N2CCN(C(=O)[C@H]3CCC(=O)N3)[C@H](C)C2)nc(N[C@H](C)c2ccc(Cl)cc2Cl)c1Cl` [Example 1.105], with below 100 nM.
Then `C[C@@H](Nc1nc(N2CC[C@H](NC(=O)[C@H]3CCC(=O)N3)[C@@H](F)C2)ncc1Cl)c1ccc(Cl)cc1Cl` [Example 1.106], with 100 to 1000 nM; and `C[C@@H](Nc1nc(N2CC[C@H](NC(=O)[C@H]3CCCN3)[C@@H](O)C2)ncc1F)c1ccc(Cl)cc1Cl` [Example 1.107], with below 100 nM.
Then `C[C@@H](Nc1nc(N2CCN(C(=O)[C@H]3CCCN3)CC2)ncc1OCC(F)(F)F)c1ccc(Cl)cc1Cl` [Example 1.108], with below 100 nM; and `C[C@@H](Nc1nc(N2CCN(C(=O)[C@H]3CCC(=O)N3)[C@H](CO)C2)ncc1Cl)c1ccc(Cl)cc1Cl` [Example 1.109], with below 100 nM.
For the compound `C[C@@H](Nc1nc(N2CCN(C(=O)[C@H]3CCC(=O)N3)[C@@H](CO)C2)ncc1Cl)c1ccc(Cl)cc1Cl` [Example 1.111], the IC50 was below 100 nM.
For the compound `C[C@@H]1CN(c2ncc(Cl)c(N[C@H](C)c3ccc(Cl)cc3Cl)n2)CCN1C(=O)[C@H]1CCC(=O)N1` [Example 1.112], the IC50 was below 100 nM.
The same measure for `C[C@@H](Nc1nc(N2CCN(C(=O)[C@H]3CCCN3)CC2)ncc1C1CC1)c1ccc(Cl)cc1Cl` [Example 1.114]: below 100 nM; for `C[C@@H](Nc1ccnc(N2CCN(C(=O)[C@H]3CCCN3)CC2)n1)c1ccc(Cl)cc1Cl` [Example 1.115]: below 100 nM; for `C[C@@H](Nc1ccnc(N2CCN(C(=O)[C@H]3CCC(=O)N3)CC2)n1)c1ccc(Cl)cc1Cl` [Example 1.116]: below 100 nM.
On to `C[C@@H](Nc1nc(N2CCN(C(=O)[C@H]3CCC(=O)N3)CC2)ncc1F)c1ccc(Cl)cc1Cl` [Example 1.117], for which the IC50 is below 100 nM.
Then `C[C@@H](Nc1nc(N2CC[C@@H](NC(=O)[C@H]3CCCN3)[C@H](O)C2)ncc1OC(F)F)c1ccc(Cl)cc1Cl` [Example 1.118], with below 100 nM.
The same measure for `C[C@H]1CC[C@H](C(=O)N[C@H]2CCN(c3ncc(OC(F)F)c(N[C@H](C)c4ccc(Cl)cc4Cl)n3)C[C@@H]2O)N1` [Example 1.119]: below 100 nM; for `C[C@@H](Nc1nc(N2CC[C@H](NC(=O)[C@H]3CCCN3)[C@H](O)C2)ncc1OC(F)F)c1ccc(Cl)cc1Cl` [Example 1.120]: below 100 nM.
The same measure for `COc1cnc(N2CCN(C(=O)C34CC(CN3)C4)CC2)nc1N[C@H](C)c1ccc(Cl)cc1Cl` [Example 1.121]: below 100 nM; for `C[C@@H](Nc1nc(N2CCN(C(=O)[C@H]3COC(=O)N3)CC2)ncc1Cl)c1ccc(Cl)cc1Cl` [Example 1.122]: below 100 nM.
For `C[C@@H](Nc1nc(N2CC[C@H](NC(=O)[C@H]3CCC(C)(C)N3)[C@@H](O)C2)ncc1Cl)c1ccc(Cl)cc1Cl` [Example 1.123], the IC50 is below 100 nM.
The same measure for `C[C@@H](Nc1nc(N2CC[C@H](NC(=O)[C@H]3CCCCN3)[C@@H](O)C2)ncc1Cl)c1ccc(Cl)cc1Cl` [Example 1.124]: below 100 nM; for `C[C@@H](Nc1nc(N2CC[C@H](NC(=O)[C@H]3COCCN3)[C@@H](O)C2)ncc1Cl)c1ccc(Cl)cc1Cl` [Example 1.125]: 100 to 1000 nM.
Then `C[C@@H](Nc1nc(N2CCN(C(=O)C(N)(CO)CCl)CC2)ncc1Cl)c1ccc(Cl)cc1Cl` (stereo partly shown) [Example 1.126], with 100 to 1000 nM; and `C[C@@H](Nc1nc(N2CCC(C3CCCN(CCC(N)=O)C3)CC2)ncc1Cl)c1ccc(Cl)cc1Cl` (stereo partly shown) [Example 1.127], with below 100 nM.
In the case of `C[C@@H](Nc1nc(N2CCN(C(=O)[C@@H]3COCCN3)CC2)ncc1Cl)c1ccc(Cl)cc1Cl` [Example 1.128], the IC50 lay in the range of 100 to 1000 nM.
The same measure for `C[C@@H](Nc1nc(N2CCN(C(=O)[C@H]3CNCC(=O)N3)CC2)ncc1Cl)c1ccc(Cl)cc1Cl` [Example 1.129]: below 100 nM; for `C[C@@H](Nc1nc(N2CCC(NC(=O)[C@H]3C[C@H](F)CN3)CC2)ncc1Cl)c1ccc(Cl)cc1Cl` [Example 1.137]: 100 to 1000 nM; for `C[C@@H](Nc1nc(N2CCN(C(=O)[C@H]3CCCN3C(N)=O)CC2)ncc1Cl)c1ccc(Cl)cc1Cl` [Example 1.138]: 100 to 1000 nM.
The same measure for `C[C@@H](Nc1nc(N2CCN(C(=O)[C@H]3CCCN3Cc3nnn[nH]3)CC2)ncc1Cl)c1ccc(Cl)cc1Cl` [Example 1.139]: below 100 nM.
The same measure for `C[C@@H](Nc1nc(N2CCN(C(=O)[C@H]3C[C@@H](F)CN3)CC2)ncc1Cl)c1ccc(Cl)cc1Cl` [Example 1.140]: below 100 nM; for `C[C@@H](Nc1nc(N2CCC(N(CCC(=O)O)C(=O)[C@H]3CCCN3)CC2)ncc1Cl)c1ccc(Cl)cc1Cl` [Example 1.141]: above 1000 nM.
Take `C[C@@H](Nc1nc(N2CCN(C(=O)[C@H]3C[C@H](F)CN3)CC2)ncc1Cl)c1ccc(Cl)cc1Cl` [Example 1.142]: the IC50 was below 100 nM.
Then `C[C@@H](Nc1nc(N2CCN(C(=O)[C@H]3CCN(C)C3)CC2)ncc1Cl)c1ccc(Cl)cc1Cl` [Example 1.143], with below 100 nM; and `C[C@@H](Nc1nc(N2CCN(C(=O)[C@@H]3CCC(=O)N3)CC2)ncc1Cl)c1ccc(Cl)cc1Cl` [Example 1.144], with 100 to 1000 nM.
